The values below are quoted from earlier work in publication PMC7383075 (Journal of Nuclear Medicine, 2020).

In data set [1] the test system is insulinomas. The following applies: at the proper dilution; ref [23]. The source says: A targeted approach, as described in this study, has the benefit of creating signals with higher contrast between the target and surrounding tissue and therefore more precise delineation of the lesion. […] Re ...
Data set [2] concerns primary breast cancer lesions, as well as peritoneal metastases of colorectal cancer. Conditions: primary breast cancer lesions and peritoneal metastases of colorectal cancer; ref [29],[30]. From the text:
Contributing to the potential for clinical translation of this tracer is the use of the NIR fluorophore IRDye 800CW. This dye is widely used in the development of targeted fluorescence imaging approaches, and several studies already have shown the first successful clinical applications using this fluorophore. […] Also, IRDye 800CW coupled to the monoclonal antibody cetuximab was successfully used fo ...

In the case of `CN(C)c1ccc2nc3ccc(=[N+](C)C)cc-3sc2c1` [methylene blue], the “uptake in insulinomas versus normal pancreatic tissue” value in data set [1] is given as “higher uptake in insulinomas than in normal pancreatic tissue”. In the case of “IRDye 800CW coupled to the monoclonal antibody bevacizumab: IRDye 800CW coupled to the monoclonal antibody bevacizumab”, in data set [2], the “detection of cancer lesions” value was “shown to be feasible”.
